{"source": "patent US20100267779A1", "about": "“Novel Compounds and Methods of Using Them” (SYNDAX PHARMACEUTICALS, INC., priority 2007, published 2010)", "system": "HDAC", "assay": "Alternative HDAC activity assay (Cayman Chemicals fluorescent-based HDAC activity assay)", "assay_type": "biochemical", "conditions": "acetylated lysine substrate, HDAC developer, fluorescence readout; compared with MS-275", "method": "Cayman Chemicals markets a commercial fluorescent-based HDAC activity assay. The assay utilizes a fluorescent-based method for measuring HDAC activity that eliminates radioactivity, extraction or chromatography. The assay requires two steps: first, an acetylated lysine substrate is incubated with samples containing HDAC activity. Deacetylation sensitizes the substrate such that treatment with the HDAC developer in the second step releases a fluorescent product. The fluorophore can be analyzed using a fluorescence plate reader or a fluorometer with […]."}
{"smiles": "C[C@@H](OC(=O)NCc1ccc(C(=O)Nc2ccccc2N)cc1)c1cccnc1", "note": "[(R)-1-(pyridin-3-yl)ethyl 4-(2-aminophenylcarbamoyl)benzylcarbamate]", "values": [{"measurement": "HDAC activity (fluorescent-based HDAC activity assay, FIG. 1)", "value": "activity similar to MS-275"}]}
{"smiles": "C[C@H](OC(=O)NCc1ccc(C(=O)Nc2ccccc2N)cc1)c1cccnc1", "note": "[(S)-1-(pyridin-3-yl)ethyl 4-(2-aminophenylcarbamoyl)benzylcarbamate]", "values": [{"measurement": "HDAC activity (fluorescent-based HDAC activity assay, FIG. 1)", "value": "activity similar to MS-275"}]}
